Assay results from patent publication US11464772B2, “Methods of treating acute or chronic pain” (priority 2017, dated 2022).

How the values were obtained:
[1] = test system: rats post spinal nerve ligation; experiment: Spinal nerve ligation (SNL), von Frey mechanical withdrawal (FIG. 3); format: in vivo, Sprague Dawley rats; conditions: oral, 100 mg/kg, 14 days post-SNL, tested 1, 2 and 4 hours
Protocol: Ligation of the L5 and L6 spinal nerves in rats leads to a robust pain state, characterized by tactile allodynia and mechanical hyperalgesia that can be assayed using the von Frey or Hargreaves assays (Kim, S. H. and Chung, J. M. Pain 50 (1992): 355-63). Sprague Dawley rats were housed in the animal vivarium 2 weeks prior to testing and housed on a 12 h light/dark cycle with food and water ad libitum. Under general anesthesia, the L5 and L6 spinal nerves on one side of the rat spine were tightly ligated using sterile surgical suture (Spinal Nerve Ligation, SNL). The incision site of each animal was then closed using standard surgical technique. Spared Nerve Injury: Animals were anesthetized by 2% isoflurane with 98% oxygen inhalation. […] The mechanical allodynia were measured at 60 minutes after administration every day (von Frey Cilia Apparatus, manufactured by Institute of Biology Bioengineering, Chinese Academy of Medical Science).
Baseline mechanical (von Frey) withdrawal responses were tested immediately before SNL surgery and 14 days after. […] Immediately after the 14-day post-surgical baseline responses were measured, Compound A (100 mg/kg), Gabapentin (100 mg/kg), or vehicle (control) were administered orally and voluntary withdrawal from von Frey mechanical stimuli were tested 1 hour, 2 hours and 4 hours later (FIG. 3). […]

[2] = test system: rats after intraplantar incision; experiment: Rodent paw incision, Hargreaves thermal withdrawal assay (FIG. 1); format: in vivo, Sprague Dawley rats; conditions: intravenous, 30 mg/kg, post-surgery baseline, tested 0.5-4 hours
Protocol: The rodent paw incision model involves inducing a surgical incision to the plantar surface of the back paw of a mouse or rat, suturing the incision closed, then testing the area proximal to the wound for changes in sensory perception, such as allodynia or hypersensitivity, at some point in time after the incision (typically 24 hours later)(Brennan T J et al. Pain. 1996 March, 64(3):493-501). Thermal (Hargreaves) and mechanical (von Frey) sensory testing is performed before and 24 hours after surgical incision of the plantar surface of the left back paw of laboratory rats, at a plantar area adjacent to the incision. […]
Plantar incision of the hind paw of the rat produces a profound local inflammatory response characterized by pain hypersensitivity (allodynia) 24 hours after surgery in rats, in similar manner to the post-operative pain observed in humans (Brennan, T. J. et al. Pain. 1996 March; 64(3):493-501). […] Three days prior to testing the compound, thermal (Hargreaves) and mechanical (von Frey) sensitivity were measured using standard techniques described below. […] The thermal sensitivities of the animals were measured before surgery and 24 hours after surgery using the Hargreaves Thermal Withdrawal Assay (FIG. 1) (Kim, S. H. and Chung, J. M. Pain 50 (1992): 355-63). […]

[3] = test system: rat models of neuropathic pain; conditions: rat models of neuropathic pain (Field et al. 1999); cited from earlier work

SMILES | blocking of static and dynamic allodynia [3] | also measured
NCC1(CC(=O)O)CCCCC1 [gabapentin] | – | reversal of reduced mechanical withdrawal thresholds post spinal nerve ligation [1]: reversed
CC(C)Cc1ccc(C(C)C(=O)O)cc1 (stereo not shown) [ibuprofen] | – | reversal of reductions in thermal withdrawal thresholds after intraplantar incision [2]: not reversed
CN1CC[C@]23c4c5ccc(O)c4O[C@H]2[C@@H](O)C=C[C@H]3[C@H]1C5 [morphine] | blocking only static allodynia, and not dynamic allodynia | –
CC(C)C[C@H](CN)CC(=O)O [pregablin] | blocking both types of allodynia | –
